Data from patent US5798335A, “Method for the treatment or prevention of eczema/dermatitis” (priority 1993, dated 1998).

Legend:
inflammatory lesions = conditions: three lesions severity 1 on back; dermal spray morning and afternoon; after three days
Method: The usefulness of the method of the present invention was assessed in experiments using dogs.

skin conditions = system: skin conditions
Method: Following these initial trials a further trial was conducted […].
The trial was a double-blinded, placebo controlled trial in which the compound was compared with placebo treatment. […] The study was conducted as follows:
1. Assessment by a veterinarian.
2. Treatment Period A: 14 days.
3. Assessment by a veterinarian.
4. No treatment for seven days as a wash-out period.
5. Assessment by a veterinarian.
6. Treatment Period B: 14 days.
7. Assessment by a veterinarian.
8. No treatment for seven days.
9. Assessment by a veterinarian.

## D-Ala-Ser-Thr-Thr-Thr-Asn-Tyr-Thr-NH2 [Peptide T]
Inflammatory lesions
  Treatment results (lesions): Lesions had disappeared
Skin conditions; 14 day treatment period, crossover with placebo
  cases of mild improvement in one parameter (usually erythema): five
Skin conditions; 14 day treatment period, these dogs had atopic dermatitis
  dogs with significant improvement: two
Skin conditions; 14 day treatment periods, crossover with placebo
  dogs with no change: ten
